Consider four compounds from US6914064B2, “1,4-Disubstituted piperazine derivatives useful as uro-selective α1-adrenoceptor blockers” (Ranbaxy Laboratories Limited, priority 2000, dated 2005).

SMILES strings stand for the structures.

In one assay the target is T1, α1B adrenoceptor (Rattus norvegicus, UniProt P15823).
T1 construct: from tissue; host or cells: rat liver membranes
T1 sequence (P15823 1-515): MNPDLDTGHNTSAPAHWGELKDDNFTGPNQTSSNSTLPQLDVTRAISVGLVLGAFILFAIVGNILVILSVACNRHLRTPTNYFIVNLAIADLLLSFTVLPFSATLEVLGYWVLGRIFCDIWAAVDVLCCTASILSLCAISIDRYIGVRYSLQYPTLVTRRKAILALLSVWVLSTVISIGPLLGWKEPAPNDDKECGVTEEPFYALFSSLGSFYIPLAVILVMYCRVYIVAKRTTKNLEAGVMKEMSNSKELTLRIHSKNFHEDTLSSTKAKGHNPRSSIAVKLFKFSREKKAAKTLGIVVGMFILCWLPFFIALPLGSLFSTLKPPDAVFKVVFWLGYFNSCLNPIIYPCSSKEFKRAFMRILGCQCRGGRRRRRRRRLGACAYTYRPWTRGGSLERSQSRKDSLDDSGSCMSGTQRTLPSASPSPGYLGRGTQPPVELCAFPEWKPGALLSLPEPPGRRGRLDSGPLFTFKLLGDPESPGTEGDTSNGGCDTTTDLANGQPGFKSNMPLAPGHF
As to the kind of experiment: Receptor binding assay, displacement of [3H]prazosin, rat liver membranes. To be noted: [3H]prazosin displacement, rat liver membranes; read-out: α1B (Rat liver) Ki. The essentials: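 Rat liver membranes (150-250 μg protein) incubated with [3H]prazosin in 50 mM Tris HCl, 5 mM EDTA, pH 7.4, 1 h at 24-25° C; nonspecific binding with 300 nM prazosin. Bound radioactivity counted after filtration; IC50 by nonlinear fit, Ki via Cheng-Prusoff.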

Assay [1] has as its target T2, α1A adrenoceptor (prostate) (Rattus norvegicus, UniProt P43140).
T2 construct: from tissue; host or cells: isolated prostate tissue
T2 sequence (P43140 1-466): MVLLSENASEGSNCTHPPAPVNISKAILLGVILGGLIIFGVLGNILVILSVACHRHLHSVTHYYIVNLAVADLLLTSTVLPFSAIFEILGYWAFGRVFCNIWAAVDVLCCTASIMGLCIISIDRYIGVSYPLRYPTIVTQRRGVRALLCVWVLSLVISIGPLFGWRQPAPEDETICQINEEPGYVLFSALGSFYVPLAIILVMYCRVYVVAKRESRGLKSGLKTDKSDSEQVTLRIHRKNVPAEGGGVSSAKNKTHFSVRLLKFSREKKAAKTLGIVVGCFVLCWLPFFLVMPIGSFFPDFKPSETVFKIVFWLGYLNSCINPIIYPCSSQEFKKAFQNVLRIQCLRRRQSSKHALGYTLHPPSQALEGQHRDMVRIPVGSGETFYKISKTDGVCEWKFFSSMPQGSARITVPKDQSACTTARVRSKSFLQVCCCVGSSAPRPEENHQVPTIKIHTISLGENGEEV
As to the kind of experiment: In vitro functional study, antagonism of phenylepinephrine-induced contraction of prostate. The class given is biochemical. The note with it: for Selectivity α1A/α1B / Selectivity α1A/α1D: functional assays, from pKB values; for Kb: prostate, phenylepinephrine, tested compound at 0.1, 1 and 10 mM, read-out: α Adrenoceptor Subtype (pKB) α1A (converted). From the text: In order to study selectivity of action of these compounds towards different α-adrenoceptor subtypes, the ability of these compounds to antagonise α1-adrenoceptor agonist induced contractile response on aorta (α1Dprostate (α1A and spleen (α1B was studied. Aorta and spleen tissues were isolated from urethane anaesthetised (1.5 gm/kg) male wistar rats. Isolated tissues were mounted in organ bath containing Krebs Henseleit buffer of following composition (mM): NaCl 118; KCl 4.7; CaCl2 2.5; MgSO4. 7H2O 1.2; NaHCO3 25; KH2PO41.2; glucose 11.5. Buffer was maintained at 37° C. and aereated with a mixture of 95% O2 and 5% CO2. A resting tension of 2 g (aorta) or 1 g (spleen and prostate)was applied to tissues. Contractile response was monitored using a force displacement transducer and recorded on chart recorders. Tissues were allowed to equilibrate for 2 hours. At the end of equilibration period, concentration response curves to norepinephrine (aorta) and phenylepinephrine (spleen and prostate) were obtained in absence and presence of tested compound (at concentration of 0.1,1 and 10 mM). Antagonist affinity was calculated and expressed as pKB vales in Table II.

As for `CCCOc1ccccc1N1CCN(CCCN2C(=O)C3CC=CCC3C2=O)CC1.Cl` (stereo not shown) [Compound 24, 2-[3-{4-(2-Propoxyphenyl)piperazin-1-yl}propyl]-3a,4,7,7a-tetrahydro-1H-isoindole-1,3(2H)-dione hydrochloride], the Ki on α1B adrenoceptor was 28 nM. Further, in assay [1], the “Selectivity α1A/α1B” value was 355, the “Selectivity α1A/α1D” value is recorded as 13 and the Kb was 0.0398 nM.
Taken in the same sequence, the figures for `CC(C)Oc1ccccc1N1CCN(CCCN2C(=O)C3CC=CCC3C2=O)CC1.Cl` (stereo not shown) [Compound 23, 2-[3-{4-(2-Isopropoxyphenyl)piperazin-1-yl}propyl]-3a,4,7,7a-tetrahydro-1H-isoindole-1,3(2H)-dione hydrochloride] were 28 nM, 170, 1 and 0.115 nM.
In the same order, the values of `COc1ccccc1N1CCN(CCCN2C(=O)C3CC=CCC3C2=O)CC1.Cl` (stereo not shown) [Compound 01, 2-[3-{4-(2-Methoxyphenyl)piperazin-1-yl}propyl]-3a,4,7,7a-tetrahydro-1H-isoindole-1,3(2H)-dione hydrochloride] are 73 nM, 41, 4 and 0.537 nM.
Take `CCOc1ccccc1N1CCN(CCCN2C(=O)C3CC=CCC3C2=O)CC1.Cl` (stereo not shown) [Compound 11, 2-[3-{4-(2-Ethoxyphenyl)piperazin-1-yl}propyl]-3a,4,7,7a-tetrahydro-1H-isoindole-1,3(2H)-dione hydrochloride]: on α1B adrenoceptor, the Ki came out at 19 nM. Also, in assay [1], the “Selectivity α1A/α1B” value was determined as 47, the “Selectivity α1A/α1D” value is recorded as 15 and the Kb was 0.112 nM.
